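These data come from cells grown in 96-well plates and exposed to compound for 48 hours at five concentrations. Abbreviation: GI50, concentration required for 50% inhibition of growth. The concentration for full growth arrest is given as TGI.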
Experiments:
Assay in all cases: DTP human tumour cell line panel, 48 h
SNB-19 CNS = test system: SNB-19 CNS
KM12 colon = test system: KM12 colon
U251 CNS = test system: U251 CNS
SK-MEL-5 melanoma = test system: SK-MEL-5 melanoma
SF-268 CNS = test system: SF-268 CNS
SK-MEL-2 melanoma = test system: SK-MEL-2 melanoma
SR leukemia = test system: SR leukemia
SN12C renal = test system: SN12C renal
786-0 renal = test system: 786-0 renal
HT29 colon = test system: HT29 colon
LOX IMVI melanoma = test system: LOX IMVI melanoma
BT-549 breast = test system: BT-549 breast
HOP-62 NSCLC = test system: HOP-62 NSCLC
UACC-62 melanoma = test system: UACC-62 melanoma
ACHN renal = test system: ACHN renal
SNB-75 CNS = test system: SNB-75 CNS
SK-OV-3 ovarian = test system: SK-OV-3 ovarian
NCI-H226 lung = test system: NCI-H226 lung
RXF 393 renal = test system: RXF 393 renal
A549 NSCLC = test system: A549 NSCLC
CAKI-1 renal = test system: CAKI-1 renal
UACC-257 melanoma = test system: UACC-257 melanoma
OVCAR-4 ovarian = test system: OVCAR-4 ovarian
CCRF-CEM leukemia = test system: CCRF-CEM leukemia
IGROV1 ovarian = test system: IGROV1 ovarian
OVCAR-3 ovarian = test system: OVCAR-3 ovarian
HCT-116 colon = test system: HCT-116 colon
COLO 205 colon = test system: COLO 205 colon
RPMI-8226 leukemia = test system: RPMI-8226 leukemia
T-47D breast = test system: T-47D breast
NCI-H460 lung = test system: NCI-H460 lung
UO-31 renal = test system: UO-31 renal
A498 renal = test system: A498 renal
HS 578T breast = test system: HS 578T breast
MDA-MB-435 = test system: MDA-MB-435
MCF7 breast = test system: MCF7 breast
PC-3 prostate = test system: PC-3 prostate
DU-145 prostate = test system: DU-145 prostate
HCC-2998 colon = test system: HCC-2998 colon
HOP-92 NSCLC = test system: HOP-92 NSCLC
NCI-H522 lung = test system: NCI-H522 lung
SF-539 CNS = test system: SF-539 CNS
NCI/ADR-RES ovarian = test system: NCI/ADR-RES ovarian
EKVX NSCLC = test system: EKVX NSCLC
HCT-15 colon = test system: HCT-15 colon
M14 melanoma = test system: M14 melanoma
SK-MEL-28 melanoma = test system: SK-MEL-28 melanoma
SF-295 CNS = test system: SF-295 CNS
OVCAR-8 ovarian = test system: OVCAR-8 ovarian
MDA-MB-231 breast = test system: MDA-MB-231 breast
OVCAR-5 ovarian = test system: OVCAR-5 ovarian
MALME-3M melanoma = test system: MALME-3M melanoma
TK-10 renal = test system: TK-10 renal

CC(C)(O)c1cncc(-c2ccc3ncnc(N4CCc5cc(F)c(Cl)cc54)c3c2)c1
GI50 (SNB-19 CNS): 2.51 µM
TGI (SNB-19 CNS): > 100 µM
GI50 (KM12 colon): 5.86 µM
TGI (KM12 colon): > 100 µM
GI50 (U251 CNS): 6.75 µM
TGI (U251 CNS): > 100 µM
GI50 (SK-MEL-5 melanoma): 2.94 µM
TGI (SK-MEL-5 melanoma): > 100 µM
GI50 (SF-268 CNS): 3.22 µM
TGI (SF-268 CNS): > 100 µM
GI50 (SK-MEL-2 melanoma): 4.89 µM
TGI (SK-MEL-2 melanoma): 66.6 µM
GI50 (SR leukemia): 1.52 µM
TGI (SR leukemia): > 100 µM
GI50 (SN12C renal): 0.749 µM
TGI (SN12C renal): > 100 µM
GI50 (786-0 renal): 0.722 µM
TGI (786-0 renal): 75.4 µM
GI50 (HT29 colon): 0.908 µM
TGI (HT29 colon): > 100 µM
TGI (LOX IMVI melanoma): 65.1 µM
GI50 (BT-549 breast): 1.22 µM
TGI (BT-549 breast): 8.89 µM
GI50 (HOP-62 NSCLC): 1.19 µM
TGI (HOP-62 NSCLC): > 100 µM
GI50 (UACC-62 melanoma): 0.543 µM
TGI (UACC-62 melanoma): > 100 µM
GI50 (ACHN renal): 0.572 µM
TGI (ACHN renal): > 100 µM
GI50 (SNB-75 CNS): 0.407 µM
TGI (SNB-75 CNS): 15.2 µM
GI50 (SK-OV-3 ovarian): 0.649 µM
TGI (SK-OV-3 ovarian): 12.2 µM
GI50 (NCI-H226 lung): 3.46 µM
TGI (NCI-H226 lung): > 100 µM
GI50 (RXF 393 renal): 0.432 µM
TGI (RXF 393 renal): 3.07 µM
GI50 (A549 NSCLC): 0.773 µM
TGI (A549 NSCLC): > 100 µM
GI50 (CAKI-1 renal): 0.388 µM
TGI (CAKI-1 renal): > 100 µM
GI50 (UACC-257 melanoma): 3.96 µM
TGI (UACC-257 melanoma): > 100 µM
GI50 (OVCAR-4 ovarian): 1.35 µM
TGI (OVCAR-4 ovarian): > 100 µM
GI50 (CCRF-CEM leukemia): 2.32 µM
TGI (CCRF-CEM leukemia): > 100 µM
GI50 (IGROV1 ovarian): 0.235 µM
TGI (IGROV1 ovarian): 1.3 µM
GI50 (OVCAR-3 ovarian): 2.27 µM
TGI (OVCAR-3 ovarian): > 100 µM
GI50 (HCT-116 colon): 2.35 µM
TGI (HCT-116 colon): > 100 µM
GI50 (COLO 205 colon): 3.52 µM
TGI (COLO 205 colon): > 100 µM
GI50 (RPMI-8226 leukemia): 1.99 µM
TGI (RPMI-8226 leukemia): > 100 µM
GI50 (T-47D breast): 0.236 µM
TGI (T-47D breast): 4.08 µM
GI50 (NCI-H460 lung): 1.33 µM
TGI (NCI-H460 lung): > 100 µM
GI50 (UO-31 renal): 0.184 µM
TGI (UO-31 renal): 74.2 µM
GI50 (A498 renal): 0.197 µM
TGI (A498 renal): 1.17 µM
GI50 (HS 578T breast): 0.754 µM
TGI (HS 578T breast): 11.7 µM
GI50 (MDA-MB-435): 2.63 µM
TGI (MDA-MB-435): > 100 µM
GI50 (MCF7 breast): 0.349 µM
TGI (MCF7 breast): > 100 µM
GI50 (PC-3 prostate): 0.775 µM
TGI (PC-3 prostate): > 100 µM
GI50 (DU-145 prostate): 1.49 µM
TGI (DU-145 prostate): > 100 µM
GI50 (HCC-2998 colon): 2.36 µM
TGI (HCC-2998 colon): > 100 µM
GI50 (HOP-92 NSCLC): 0.151 µM
TGI (HOP-92 NSCLC): 0.827 µM
GI50 (NCI-H522 lung): 1.87 µM
TGI (NCI-H522 lung): 85.2 µM
GI50 (SF-539 CNS): 1.96 µM
TGI (SF-539 CNS): 84.5 µM
GI50 (NCI/ADR-RES ovarian): 1.59 µM
TGI (NCI/ADR-RES ovarian): > 100 µM
GI50 (EKVX NSCLC): 0.52 µM
TGI (EKVX NSCLC): 9.12 µM
GI50 (HCT-15 colon): 1.11 µM
TGI (HCT-15 colon): > 100 µM
GI50 (M14 melanoma): 4.89 µM
TGI (M14 melanoma): > 100 µM
GI50 (SK-MEL-28 melanoma): 2.98 µM
TGI (SK-MEL-28 melanoma): > 100 µM
GI50 (SF-295 CNS): 1.14 µM
TGI (SF-295 CNS): 23.1 µM
GI50 (OVCAR-8 ovarian): 2.59 µM
TGI (OVCAR-8 ovarian): > 100 µM
GI50 (MDA-MB-231 breast): 1.5 µM
TGI (MDA-MB-231 breast): > 100 µM
GI50 (OVCAR-5 ovarian): 1.17 µM
TGI (OVCAR-5 ovarian): > 100 µM
GI50 (MALME-3M melanoma): 1.52 µM
TGI (MALME-3M melanoma): > 100 µM
GI50 (TK-10 renal): 0.417 µM
TGI (TK-10 renal): > 100 µM

Source: PubChem BioAssay (NCI)
